Data set [1] concerns L. infantum promastigotes. Nature of the data set: Antileishmanial activity against L. infantum promastigotes (luciferase assay). Type of data set: cell-based. The conditions noted are these: Leishmania infantum, 72 h, read-out: EC50 L. infantum Pro.
For data set [2], the system named is L. infantum axenic amastigotes. Nature of the data set: Antileishmanial activity on L. infantum axenic amastigotes (luciferase assay). Type of data set: cell-based. The following applies: Leishmania infantum, 48 h, read-out: EC50 L. infantum Axenic Ama.
Data set [3] deals with L. infantum intracellular amastigotes. Nature of the data set: Antileishmanial activity on L. infantum intracellular (intra-THP1 macrophage) amastigotes. The conditions noted are these: Leishmania infantum, THP-1; intramacrophage (THP1) amastigotes, 120 h; read-out: EC50 L. infantum Intra. Ama. Type of data set: cell-based. The method, then:
The undifferentiated THP1 human monocyte cells (acute monocytic leukemia cell line purchased from ATCC, ref TIB-202) were grown in RPMI 1640 medium (Life Technologies, Saint-Aubin, France) supplemented with 10% FCS (Life Technologies, Saint-Aubin, France), 100 U/mL penicillin, 100 µg/mL streptomycin and 2 mM L-glutamine at 37 °C, 5% CO2. The culture was maintained between 3.10^5 and 1.10^6 cells/mL. The in vitro evaluation of the antileishmanial activity on intracellular amastigote forms of the tested compound was assessed as below.
Briefly, 200 μL of THP-1 cells with Phorbol 12-Myristate 13-Acetate (final concentration 50 ng/mL) were seeded in 96-well plates at an average density of 0.77 × 10^5 cells/mL and incubated for 96 h at 37 °C, 5% CO2. Promastigotes were centrifuged at 3000 rpm for 10 min and the supernatant replaced by the same volume of complete RPMI pH 5.4 and incubated for 24 h at 27 °C. Differentiated THP-1 cells were then infected by acidified promastigotes with an infection ratio of twenty parasites for one macrophage and incubated for 24 h at 37 °C, 5% CO2.
• Luciferase activity and determination of EC50 were performed as above.

Data set [4] is described as follows: Redox potential of the nitro group by cyclic voltammetry. Type of data set: physicochemical. The following applies: cyclic voltammetry in DMSO, corrected versus NHE. The method, then:
Voltammetric measurements were carried out with a potentiostat Autolab PGSTAT100 (ECO Chemie, Utrecht, The Netherlands) controlled by GPES 4.09 software (ECO Chemie, Utrecht, The Netherlands). Experiments were performed at room temperature in a homemade airtight three–electrode cell connected to a vacuum/argon line. The reference electrode consisted of a saturated calomel electrode (SCE) separated from the solution by a bridge compartment. The counter electrode was a platinum wire of 1 cm^2 apparent surface. The working electrode was a GC microdisk (1.0 mm in diameter–Bio-logic SAS). The supporting electrolyte (nBu4N)[PF6] (Fluka, 99% puriss electrochemical grade) and the solvent DMSO (Sigma-Aldrich puriss p.a. dried <0.02% water) were used as received and simply degassed under argon. The solutions used during electrochemical analyses were typically 10^−3 M in compound and 0.1 M in supporting electrolyte. Before each measurement, the solutions were degassed by bubbling Ar, and the working electrode was polished with a polishing machine (Presi P230, Eybens, France). Under the experimental conditions adopted in this work, the half-wave potential (E1/2) of the ferrocene Fc+/Fc couple in DMSO was E1/2 = 0.45 V vs. SCE. Experimental peak potentials were measured versus SCE and converted to NHE by adding 0.241 V.

The source of these data is paper PMC9415646, “Improving Aqueous Solubility and In Vitro Pharmacokinetic Properties of the 3-Nitroimidazo[1,2-a]pyridine Antileishmanial Pharmacophore” (Pharmaceuticals, 2022).

What is called EC50 is the concentration at which the effect is half-maximal. The melting point is the temperature, or range, at which the solid turns liquid. In turn, `O=[N+]([O-])c1c(CS(=O)(=O)CCC(F)(F)F)nc2c(-c3ccncc3)cc(Cl)cn12` [Compound 7, 6-Chloro-3-Nitro-8-(Pyridin-4-yl)-2-[(3,3,3-Trifluoropropylsulfonyl)methyl]imidazo[1,2-a]pyridine] displayed a melting point of 184 °C. In data set [1], the EC50 is 14 ± 0.4 µM. The EC50 in data set [2] came to 14 ± 0.9 µM. Further, the EC50 in data set [3] worked out at 3.7 ± 0.4 µM. For the same compound, in data set [4], the “E0 (redox potential of the nitro group)” value is on record as −0.61 V.
